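All cell lines were grown in 96-well plates and treated with compound for 48 hours. TGI: concentration producing complete growth inhibition.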

Common to all, as to assay: growth of human tumour cells (NCI), 48 h
The subject of experiment [1] is EKVX NSCLC.
The test system of experiment [2] is HCT-116 colon.
For experiment [3], the system named is HOP-92 NSCLC.
In experiment [4] the test system is HT29 colon.
For experiment [5], the system named is MCF7 breast.
The subject of experiment [6] is MDA-MB-231 breast.
The test system of experiment [7] is MDA-MB-435.
Experiment [8] has as its system NCI-H522 lung.
Experiment [9] deals with NCI/ADR-RES ovarian.
In experiment [10] the test system is OVCAR-5 ovarian.
The test system of experiment [11] is PC-3 prostate.
Experiment [12] has as its system SF-295 CNS.
The test system of experiment [13] is SN12C renal.
In experiment [14] the test system is SNB-19 CNS.
Experiment [15] concerns SW-620 colon.
Experiment [16] concerns U251 CNS.
Experiment [17] deals with UO-31 renal.
Experiment [18] concerns MOLT-4 leukemia.

On to `Cc1[nH]c(C)c(CN(C)C)c1CN(C)C`, for which the TGI in experiment [1], in [2], in experiment [3], in experiment [4], in experiment [5] and in experiment [6] was more than 100 µM each time. Besides, the TGI in experiment [7], in experiment [8], in [9], in experiment [10], in [11] and in experiment [12] was more than 100 µM throughout. In addition, the TGI in [13], in experiment [14], in [15], in experiment [16] and in experiment [17] was more than 100 µM in each case.
Consider `Cc1c(C(=O)c2ccccc2)[n+](=O)c2cc(Cl)c(Cl)cc2n1[O-]`, for which the TGI in [1] worked out at 26.3 µM; in [2], 26.3 µM; in experiment [3], 15.2 µM; in experiment [4], 28.7 µM; in [5] it was 26.6 µM; in experiment [6], 25.9 µM. In addition, the TGI is 24.5 µM in [7]; 12.2 µM in experiment [18]; 38 µM in [9]; 31.8 µM in [10]; 59.5 µM in experiment [11]; 28.7 µM in experiment [12]. Moreover, the TGI in experiment [13] turned out to be 30.5 µM; in [14], 37.4 µM; in experiment [16], 29.9 µM; in experiment [17] it was 26.1 µM.
`N=c1oc2ccccc2cc1C(=O)Nc1cccc2ccccc12`: the TGI in [2], in experiment [3], in experiment [4], in [5], in experiment [6] and in experiment [7] was more than 100 µM in each case. Also, the TGI in experiment [18], in experiment [9], in [10], in experiment [11], in [13] and in experiment [14] was more than 100 µM each time. Moreover, the TGI in experiment [15] and in experiment [16] was more than 100 µM throughout.
As for `C=C1CN=C(Nc2ccc(Cl)cc2)S1`, the TGI in experiment [1], in experiment [2], in experiment [3], in experiment [4], in experiment [5] and in [6] was more than 100 µM each time. Besides, the TGI in [18] is more than 10 µM; in experiment [9] it was more than 100 µM; in [10], more than 100 µM; in experiment [11], more than 100 µM; in experiment [12], more than 100 µM; in [13], more than 100 µM. The TGI in experiment [14], in experiment [15], in [16] and in experiment [17] was more than 100 µM each time.
As to `CC1(c2ccccc2)O[C@@H]2C[C@H]3[C@@H]4CCC5=CC(=O)C=C[C@]5(C)[C@@]4(F)[C@@H](O)C[C@]3(C)[C@]2(C(=O)CO)O1` (stereo not given in full), the TGI in [1] worked out at 30.4 µM; in experiment [2], 27.8 µM; in experiment [3], 38.4 µM; in experiment [4] it was 32.4 µM; in experiment [5] it was 29.9 µM; in experiment [6] it was 24.5 µM. The TGI was 33.1 µM in [7]; 25 µM in experiment [8]; 36 µM in experiment [9]; 33.1 µM in experiment [10]; 30.9 µM in experiment [11]; 36.2 µM in experiment [12]. The TGI in experiment [13] turned out to be 26.1 µM; in experiment [14], 63.7 µM; in experiment [15], 47.1 µM; in experiment [16], 33.3 µM; in [17], 33 µM.
`C=C(C)C1CC[C@@](C)(O)[C@H](C#N)C1` (stereo not given in full): the TGI in experiment [1], in experiment [2], in experiment [4], in experiment [5], in [6] and in experiment [7] was more than 100 µM throughout. Also, the TGI in experiment [18], in experiment [8], in [10], in [11], in [12] and in [13] was more than 100 µM in each case. Besides, the TGI in experiment [14], in experiment [15], in experiment [16] and in [17] was more than 100 µM in each case.
Consider `CCN(CC)CCNc1ccc2ncn3c4ccc(OC)cc4c(=O)c1c23`, for which the TGI in experiment [1] is 29.2 µM; in experiment [2] it was 13.5 µM; in [3] it was 23 µM; in [4], 8.14 µM; in [5], more than 100 µM; in [7] it was 18.6 µM. Further, the TGI in experiment [18] was determined as 11 µM; in [8] it was 21.4 µM; in experiment [9], 16.1 µM; in [10] it was 24 µM; in experiment [11], 18.8 µM; in experiment [12], 11.6 µM. Besides, the TGI is 18.3 µM in experiment [13]; 21.4 µM in experiment [14]; 11.1 µM in [15]; 5.31 µM in experiment [16]; 11.8 µM in experiment [17].
For the compound `COCn1cc(C2=C(C)C(=O)C(C)=C(C)C2=O)cn1`, the TGI in [1] is 32.5 µM; in experiment [2], 36.7 µM; in [3], 37.5 µM; in experiment [4], more than 100 µM; in experiment [5] it was more than 100 µM; in experiment [6], 40.8 µM. The TGI in experiment [7] was 33.9 µM; in experiment [18], 42 µM; in [9], 59.3 µM; in experiment [10], more than 100 µM; in experiment [11], more than 100 µM; in experiment [12], more than 100 µM. The TGI in [13], in experiment [14], in [15] and in [17] was more than 100 µM each time.
For the compound `COC(=O)c1cc(CC2Cc3cc4c(cc3C2=O)CCC4)cc2c1CCC2` (stereo not given), the TGI in experiment [1], in experiment [2], in [4], in [5], in experiment [6] and in experiment [7] was more than 100 µM throughout. Further, the TGI in [18], in experiment [8], in [9], in experiment [10], in [11] and in [12] was more than 100 µM throughout. Also, the TGI in experiment [13], in experiment [14], in experiment [15], in experiment [16] and in [17] was more than 100 µM throughout.
As for `Clc1cccc(-c2nc3cccc4c3n2Cc2ncccc2-4)c1`, the TGI in experiment [1], in [2], in experiment [3], in [4], in [5] and in [6] was more than 100 µM throughout. Also, the TGI in [7], in [8], in [9], in experiment [10], in experiment [11] and in [12] was more than 100 µM throughout. Also, the TGI in experiment [13], in [14], in [15] and in [16] was more than 100 µM throughout.
As for `CC(Br)CN1CCOCC1` (stereo not given), the TGI in experiment [1], in experiment [2], in experiment [3], in experiment [4], in experiment [5] and in experiment [6] was more than 100 µM in each case. In addition, the TGI in [7], in experiment [8], in [9], in [10], in experiment [11] and in experiment [13] was more than 100 µM throughout. The TGI in experiment [14], in experiment [15], in experiment [16] and in experiment [17] was more than 100 µM each time.
As to `O=C(c1cscc1CCc1ccccc1)c1cscc1CCc1ccccc1`, the TGI in experiment [1], in experiment [2], in experiment [5], in [6], in experiment [7] and in experiment [18] was more than 100 µM in each case. The TGI in experiment [8], in experiment [9], in experiment [10], in experiment [11], in experiment [12] and in [13] was more than 100 µM each time. Moreover, the TGI in [14], in experiment [15], in experiment [16] and in [17] was more than 100 µM in each case.
As for `C/C=C/c1cc2c(cc1O)CC[C@@H]1[C@@H]2CC[C@]2(C)[C@@H](O)CC[C@@H]12`, the TGI in experiment [1] stood at 24.7 µM; in [2] it was 5.17 µM; in [4], 20.4 µM; in [5], 1.28 µM; in experiment [6] it was 4.94 µM; in [7], 0.0948 µM. The TGI in [18] came to 15.8 µM; in [8], 0.117 µM; in experiment [10], 25.4 µM; in [11] it was 23 µM; in experiment [12] it was 14.2 µM; in experiment [13] it was 20.5 µM. Also, the TGI in experiment [14] was 14.9 µM; in [15], 19 µM; in [16], 13 µM; in [17], 18.5 µM.

For the origin of these results see PubChem BioAssay (NCI).
